Earlier results in patent US20220142893A1, “THE PROCESS OF DYEING KERATINOUS MATERIAL COMPRISING THE USE OF AN ORGANOSILICON COMPOUND, TWO COLOR-IMPARTING COMPOUNDS AND A FILM-FORMING POLYMER” (Henkel AG & Co. KGaA, priority 2019, published 2022).

Conditions: 25° C.

solubility in water (in words)	Compound	solubility in water
	O=S(=O)([O-])c1ccc(N=Nc2c(O)ccc3ccccc23)cc1.[Na+] [Acid Orange 7, sodium salt of 4-[(2-hydroxy-1-naphthyl)azo]benzene sulphonate]	more than 7 g/L
	Nc1cc(S(=O)(=O)[O-])cc2cc(S(=O)(=O)[O-])c(N=Nc3ccccc3)c(O)c12.[Na+].[Na+] [Acid Red 33, disodium salt of 5-amino-4-hydroxy-3-(phenylazo)-naphthalene-2,7-disulphonate]	2.5 mg/mL
	O=C([O-])c1c(Cl)c(Cl)c(Cl)c(Cl)c1-c1c2c(Br)cc(=O)c(Br)c-2oc2c(Br)c(O)cc(Br)c12.O=C([O-])c1c(Cl)c(Cl)c(Cl)c(Cl)c1-c1c2c(Br)cc(=O)c(Br)c-2oc2c(Br)c(O)cc(Br)c12.[Na+].[Na+] [Acid Red 92, disodium salt of 3,4,5,6-tetrachloro-2-(1,4,5,8-tetrabromo-6-hydroxy-3-oxoxanthen-9-yl)benzoic acid]	greater than 10 g/L
highly soluble	O=C([O-])C1=NN(c2ccc(S(=O)(=O)[O-])cc2)C(=O)C1N=Nc1ccc(S(=O)(=O)[O-])cc1.[Na+].[Na+].[Na+] (stereo not shown) [Acid Yellow 23, trisodium salt of 4,5-dihydro-5-oxo-1-(4-sulfophenyl)-4-((4-sulfophenyl)azo)-1H-pyrazole-3-carboxylic acid]	
